Measured values reported in patent US11459327B1, “Cycloalkyl and hetero-cycloalkyl inhibitors, preparation methods therefor, and use thereof” (Suzhou Zelgen Biopharmaceuticals Co., Ltd., priority 2019, dated 2022).

Experiments:
[1] = tested on: NCI-H358(KRAS^G12C mutation) cells; experiment: Cell assay of antiproliferative activity (Celltiter-Glo, 5 days) against NCI-H358 cells; type: cell-based; details: 5 days incubation
Procedure, shortened: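 Cells plated overnight, then given a 10-point compound series (stock dilutions 50 μM to 0.003 μM, 100 nL added per well) and grown 5 days. Luminescence read after 10 min shaking at room temperature. IC50 from curve fitting.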

[2] = Pharmacokinetics test evaluation in rats, plasma concentration by LC/MS/MS; type: in vivo; details: male SD rats, 15 mg/kg by gavage; for T1/2 / Tmax / AUC / Cmax: n = 4, mean; for AUC / Cmax: rat, plasma, po
Protocol: Male SD rats, with a body weight of about 220 g, were given 15 mg/kg solution of the compound of the invention or the control compound by gavage after overnight fasting [10% […] (captisol) and 50 mM sodium citrate (pH 5) as vehicle]. Blood samples were collected at 0.5, 1.0, 2.0, 4.0, 6.0, 8.0, 12.0 and 24 hours after the compound was administrated, and the concentrations of the compound or the control compound in plasma were determined by LC/MS/MS.
The plasma concentration-time curves of Examples 13 and 14 and control compounds were shown in FIG. 1, and the pharmacokinetics parameters were shown in Table 2: […]

[3] = tested on: A549(KRAS^G12S mutation) cells; experiment: Cell assay of antiproliferative activity (Celltiter-Glo, 5 days) against A549 cells; type: cell-based; details: Homo sapiens, 120 h, 5 days incubation
Protocol: Cell assay of antiproliferative activity of compounds against NCI-H358(KRAS^G12C mutation) and A549(KRAS^G12S mutation) cells.
40 μl phosphate buffer was added to the outer wells of the 384 microplate, and 40 μl cell suspension to be tested was added to the other wells. Then the microplate was incubated in a carbon dioxide incubator overnight.
The compounds to be tested were gradiently diluted, each compound was performed 10 concentration gradients (diluted from 50 μM to 0.003 μM) and added 100 nL to the corresponding wells in the microplate. After addition, 40 μl of phosphate buffer was added to each well in rows A and P and columns 1 and 24, and then the microplate was incubated in a carbon dioxide incubator for 5 days.
20 μL of Promega Celltiter-Glo reagent was added to each well of the microplate, and then the luminescence signal was stabilized by oscillating at room temperature for 10 min. Then PekinElmer Envision multi-label analyzer was used to read.
Finally, GraphPad Prism software was used to calculate the IC50 value of the compound and the fitting curve was drawn.
Anti-proliferative activity of the compounds of the present invention against NCI-H358(KRAS^G12C mutation) and A549(KRAS^G12S mutation) cells were shown in Table 1.

NCI-H358 tumor cells = experiment: Pharmacodynamic testing evaluation of anti-tumor activity (H358 CDX tumor model); type: in vivo; details: nude rats
Protocol: Pharmacodynamic Testing Evaluation of Anti-Tumor Activity (11358 CDX Tumor Model)
100 uL suspension containing 5×10^6 NCI-H358 tumor cells was subcutaneously injected into the right posterior back of nude rats. The health of the rat was monitored daily. Measurements were started when the tumor grew palpable.

MIA PaCa-2 tumor cells = details: MIA PaCa-2 CDX, nude rats
Protocol: Pharmacodynamic Testing Evaluation of Anti-Tumor Activity (MIA PaCa-2 CDX Tumor Model)
100 uL suspension containing 5×10^6 MIA PaCa-2 tumor cells was subcutaneously injected into the right posterior abdomen of nude rats. The health of the rat was monitored daily. Measurements were started when the tumor grew palpable. The tumor volume calculation formula was adopted: 0.5×L×W^2, where L and W represent tumor length and width, respectively. The tumor grew to ˜200 mm^3, the rats were randomly divided into groups. Rats were intragastrically administrated the corresponding dose (7.5 mg/Kg) of the compound's CMC-Na suspension every day, and their general status was monitored at the same time. The tumor was measured 3 times a week, and the weight was measured twice a week.

[4] = 30 mg/Kg intragastrically every day, Day 20
[5] = 7.5 mg/Kg intragastrically every day, Day 20

C=C(F)C(=O)N1CCN(c2nc(OCC3(CN(C)C)CC3)nc3c2CCN(c2cccc4cccc(Cl)c24)C3)CC1CC#N (stereo not drawn) [Example 13]
IC50 ([1]; Homo sapiens, NCI-H358, 120 h): 55 nM
T1/2 [2]: 2.33 h
Tmax [2]: 4.0 h
bioavailability ([2]; conclusion in words): excellent bioavailability
metabolic properties in rats compared with the control compound ([2]; higher Cmax and higher plasma exposure AUC): better metabolic properties in rats
AUC [2]: 1400 ng·h/mL
Cmax [2]: 163 ng/mL
IC50 [3]: 6000 nM

C=C(F)C(=O)N1CCN(c2nc(OCC3(CN(C)C)CC3)nc3c2CCN(c2cccc4cccc(Cl)c24)C3)C[C@@H]1CC#N [Example 27]
IC50 [1]: 14 nM
% TGI (NCI-H358 tumor cells; [4]): 89.8%
% Tumor Growth (NCI-H358 tumor cells; [4]): 182%
TV Day 0 (NCI-H358 tumor cells; Day 0 (at grouping), 30 mg/Kg intragastrically every day): 209 mm^3
TV Day 20 (NCI-H358 tumor cells; Day 20, 30 mg/Kg intragastrically every day): 471 mm^3
% TGI (MIA PaCa-2 tumor cells; [5]): 66.6%
% Tumor Growth (MIA PaCa-2 tumor cells; [5]): 145.4%
TV Day 0 (MIA PaCa-2 tumor cells; Day 0 (at grouping), 7.5 mg/Kg intragastrically every day): 197 mm^3
TV Day 20 (MIA PaCa-2 tumor cells; Day 20, 7.5 mg/Kg intragastrically every day): 518 mm^3

C=C(F)C(=O)N1CCN(c2nc(OCCN(C)C3CCC3)nc3c2CCN(c2cccc4ccc(F)c(Cl)c24)C3)CC1CC#N (stereo not drawn) [Example 14, 2-(4-(7-(8-chloro-7-fluoronaphthalen-1-yl)-2-(2-(cyclobutyl(methyl)amino)ethoxy)-5,6,7,8-tetrahydropyrido[3,4-d]pyrimidin-4-yl)-1-(2-fluoroacroloyl)piperazin-2-yl) acetonitrile]
IC50 ([1]; Homo sapiens, NCI-H358, 120 h): 90 nM
T1/2 [2]: 1.69 h
Tmax [2]: 1.25 h
AUC [2]: 392 ng·h/mL
Cmax [2]: 85.1 ng/mL
IC50 [3]: 6200 nM

C=C(F)C(=O)N1CCN(c2nc(OC[C@@H]3CCCN3C)nc3c2CCN(c2cccc4cccc(Cl)c24)C3)CC1CC#N (stereo partly drawn) [Control compound, reference compound]
T1/2 [2]: 2.47 h
Tmax [2]: 4.0 h
AUC [2]: 830 ng·h/mL
Cmax [2]: 123 ng/mL
